One assay addresses T1, CaMKIV (Homo sapiens, UniProt Q16566).
T1 construct: purchased Upstate Biotechnologies (kinase profiler service)
In words: kinase profiler, CaMKIV. The class given is biochemical. As to conditions: 10 μM compound, 100 μM ATP, mean of % control. The protocol:
(§1) Compound 45 was tested for its ability to function as a kinase inhibitor using the kinase profiler service from Upstate Biotechnologies. The general protocol employed is as follows: recombinant kinases were incubated with specific substrates, 10 mM MgAcetate, and [γ-^33P-ATP]. The reaction was initiated by the addition of MgATP mix. After incubation at room temperature for 40 minutes, the reaction was stopped by the addition of 5 μl of a 3% phosphoric acid solution. 10 μl of the reaction was then spotted on to a P30 filtermat and washed 3 times for 5 min. in 75 mM phosphoric acid and once in methanol prior to drying and scintillation counting. Each reaction was performed in duplicate with 100 μM ATP −/+10 μM compound 45. Results are presented in Table IV and are expressed as the mean of % control (no compound). PI 3-kinase-γ (PI3K-γ) activity was determined with the PIProfiler™ assay, which measures the binding of the GRP1 pleckstrin homology (PH) domain to PIP3, the product of PI3K acting on its physiological substrate PIP2.

Another assay concerns the target T2, Lyn (Homo sapiens, UniProt P07948).
T2 construct: purchased Upstate Biotechnologies (kinase profiler service)
In words: kinase profiler, Lyn. The class given is biochemical. Conditions: 10 μM compound, 100 μM ATP, mean of % control. As for the experimental part:
as §1

Another assay deals with T3, PDGFRα (Homo sapiens, UniProt P16234).
T3 construct: purchased Upstate Biotechnologies (kinase profiler service)
The assay is described as follows: kinase profiler, PDGFRα. The class given is biochemical. As to conditions: 10 μM compound, 100 μM ATP, mean of % control. As for the experimental part:
as §1

The target in another assay is T4, ASK1 (Homo sapiens, UniProt Q99683).
T4 construct: purchased Upstate Biotechnologies (kinase profiler service)
T4 sequence (Q99683 whole entry): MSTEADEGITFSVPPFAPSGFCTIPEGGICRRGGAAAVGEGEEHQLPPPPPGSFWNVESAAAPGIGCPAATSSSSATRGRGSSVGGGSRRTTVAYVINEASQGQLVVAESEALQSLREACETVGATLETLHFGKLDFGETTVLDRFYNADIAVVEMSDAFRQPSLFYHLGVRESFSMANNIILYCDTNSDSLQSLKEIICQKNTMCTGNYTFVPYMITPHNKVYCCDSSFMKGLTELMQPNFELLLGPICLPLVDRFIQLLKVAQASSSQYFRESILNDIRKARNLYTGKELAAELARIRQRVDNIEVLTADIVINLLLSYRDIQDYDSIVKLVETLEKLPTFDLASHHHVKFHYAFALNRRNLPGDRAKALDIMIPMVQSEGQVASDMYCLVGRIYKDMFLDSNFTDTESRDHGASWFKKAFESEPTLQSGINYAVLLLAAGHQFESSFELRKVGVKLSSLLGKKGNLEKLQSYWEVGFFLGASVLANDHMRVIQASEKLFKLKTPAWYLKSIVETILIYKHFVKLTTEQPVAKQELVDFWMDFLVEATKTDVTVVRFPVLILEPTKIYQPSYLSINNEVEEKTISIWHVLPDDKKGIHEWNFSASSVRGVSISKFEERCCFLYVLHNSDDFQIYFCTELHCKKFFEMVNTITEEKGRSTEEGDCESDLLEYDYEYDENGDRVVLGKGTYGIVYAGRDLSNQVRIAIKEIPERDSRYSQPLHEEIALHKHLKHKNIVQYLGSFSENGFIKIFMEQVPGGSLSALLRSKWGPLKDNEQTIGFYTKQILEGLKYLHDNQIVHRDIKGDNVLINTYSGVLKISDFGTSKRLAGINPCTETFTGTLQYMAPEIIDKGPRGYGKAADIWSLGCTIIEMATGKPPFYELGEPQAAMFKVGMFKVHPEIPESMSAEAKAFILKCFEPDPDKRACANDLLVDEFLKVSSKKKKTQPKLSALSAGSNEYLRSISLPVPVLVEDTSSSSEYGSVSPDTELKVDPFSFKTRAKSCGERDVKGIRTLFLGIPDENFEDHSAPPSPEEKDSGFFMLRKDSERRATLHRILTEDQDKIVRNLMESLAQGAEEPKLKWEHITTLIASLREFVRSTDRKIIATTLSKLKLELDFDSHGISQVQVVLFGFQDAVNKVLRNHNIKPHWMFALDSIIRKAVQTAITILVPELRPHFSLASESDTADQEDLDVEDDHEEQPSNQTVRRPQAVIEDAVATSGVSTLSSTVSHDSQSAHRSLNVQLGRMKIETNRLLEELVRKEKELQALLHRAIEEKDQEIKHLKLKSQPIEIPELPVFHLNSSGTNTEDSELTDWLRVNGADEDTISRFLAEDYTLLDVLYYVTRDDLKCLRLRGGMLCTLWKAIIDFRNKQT
The assay is described as follows: kinase profiler, ASK1. Conditions: 10 μM compound, 100 μM ATP, mean of % control. The class given is biochemical. The protocol:
as §1

In another assay the target is T5, MKK6 (Homo sapiens, UniProt P52564).
T5 construct: purchased Upstate Biotechnologies (kinase profiler service)
T5 sequence (P52564 whole entry): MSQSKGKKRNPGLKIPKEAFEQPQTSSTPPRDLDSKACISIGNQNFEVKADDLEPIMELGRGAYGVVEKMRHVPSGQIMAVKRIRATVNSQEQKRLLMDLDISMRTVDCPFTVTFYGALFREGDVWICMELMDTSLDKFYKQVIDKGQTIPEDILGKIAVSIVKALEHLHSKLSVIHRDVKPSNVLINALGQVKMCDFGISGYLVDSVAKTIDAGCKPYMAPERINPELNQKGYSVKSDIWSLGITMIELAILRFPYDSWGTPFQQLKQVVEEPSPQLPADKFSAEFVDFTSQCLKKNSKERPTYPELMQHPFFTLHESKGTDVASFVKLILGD
The assay is described as follows: kinase profiler, MKK6. The class given is biochemical. Conditions: 10 μM compound, 100 μM ATP, mean of % control. As for the experimental part: as §1

For another assay, the target named is T6, ALK (Homo sapiens, UniProt Q9UM73).
T6 construct: purchased Upstate Biotechnologies (kinase profiler service)
The assay is described as follows: kinase profiler, ALK. The class given is biochemical. Conditions: 10 μM compound, 100 μM ATP, mean of % control. The protocol:
as §1

For a further assay, the target named is T7, Abl (Homo sapiens, UniProt P00519).
T7 construct: purchased Upstate Biotechnologies (kinase profiler service)
In words: kinase profiler, Abl. The class given is biochemical. Conditions: 10 μM compound, 100 μM ATP, mean of % control. The protocol: as §1

Another assay concerns renal cancer cell lines. In words: NCI/DTP screen, renal cancer cell lines. The class given is cell-based. As to conditions: Homo sapiens; renal cancer cell lines (FIG. 10B). The protocol: (§2) The twenty-three compounds of Formula I shown below were evaluated for their antiproliferative effects in a panel of 60 human cancer cell lines as part of the in vitro anticancer screening services provided by the DTP (Developmental Therapeutics Program) of the US National Cancer Institute (NCI) U.S. National Cancer Institute (NCI) of the National Institutes of Health (NIH) in […], Md.
(§3) The NCI conducts a standard 48/72 hour 60 cell line assay and an in vitro time course assay as described in Alley et al. (Cancer Res (1988) 48:589). In the standard 60 cell line assay, a minimum of 5 concentrations of the test compound are tested at 10-fold dilutions against 60 cell lines and cell growth is assayed at 48 and 72 hours using a sulphorhodamine B assay. For the time course analysis, tumour cells are treated with the test compound at various time points, then washed and grown in medium free of the test compound until the end of the experiment at 144 hrs. This assay employs 20% FBS to better approximate the minimum c×t (concentrations and times) test compound exposure conditions that are required to achieve activity in vivo. Cell growth is quantified by an MTT assay (similar to the XTT assay described above) and the concentration of the test compound required for growth inhibition is determined. […]

Another assay concerns leukemia cell lines. In words: NCI/DTP screen, leukemia cell lines. The class given is cell-based, human. The protocol: as §2, §3
Assay [1] relates to A498 renal carcinoma cells. In words: morphological changes (vacuoles), A498. The class given is cell-based, human. Conditions: treatment for 24 hours. An excerpt: These vacuoles are not formed in DMSO- or doxorubicin-treated cells. Moreover, the nuclear membrane is no longer evident in the phase-contrast images of cells treated with compound 45, even though the nucleus is still intact, as shown by DAPI staining.

The target of another assay is T8, GSK3α (Homo sapiens, UniProt P49840).
T8 construct: purchased Upstate Biotechnologies (kinase profiler service)
T8 sequence (P49840 whole entry): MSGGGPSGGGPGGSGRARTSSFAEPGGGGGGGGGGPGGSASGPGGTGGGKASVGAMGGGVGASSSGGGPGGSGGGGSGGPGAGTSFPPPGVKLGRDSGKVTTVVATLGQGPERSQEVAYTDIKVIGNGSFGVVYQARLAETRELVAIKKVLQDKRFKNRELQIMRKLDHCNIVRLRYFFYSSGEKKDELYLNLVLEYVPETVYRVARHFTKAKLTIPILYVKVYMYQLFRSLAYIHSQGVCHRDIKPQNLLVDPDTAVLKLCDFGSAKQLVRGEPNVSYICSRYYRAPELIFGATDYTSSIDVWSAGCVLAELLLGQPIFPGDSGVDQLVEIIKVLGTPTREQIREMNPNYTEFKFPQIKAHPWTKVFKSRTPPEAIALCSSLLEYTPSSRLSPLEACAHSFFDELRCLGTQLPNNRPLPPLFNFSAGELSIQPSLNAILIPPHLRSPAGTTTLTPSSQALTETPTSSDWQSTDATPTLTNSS
In words: kinase profiler, GSK3α. The class given is biochemical. Conditions: 10 μM compound, 100 μM ATP, mean of % control. As for the experimental part: as §1

A further assay deals with T9, MKK4 (Mus musculus, UniProt P47809).
T9 construct: purchased Upstate Biotechnologies (kinase profiler service)
The assay is described as follows: kinase profiler, MKK4. As to conditions: 10 μM compound, 100 μM ATP, mean of % control. The class given is biochemical, human. As for the experimental part: as §1

A further assay concerns the target T10, SAPK2b (Homo sapiens, UniProt Q15759).
T10 construct: purchased Upstate Biotechnologies (kinase profiler service)
The assay is described as follows: kinase profiler, SAPK2b. The class given is biochemical. Conditions: 10 μM compound, 100 μM ATP, mean of % control. As for the experimental part: as §1

The subject of a further assay is AMPK. The assay is described as follows: kinase profiler, AMPK. As to conditions: 10 μM compound, 100 μM ATP, mean of % control. The class given is biochemical, human. As for the experimental part:
as §1

A further assay deals with T11, SRC (Homo sapiens, UniProt P12931).
T11 construct: purchased Upstate Biotechnologies (kinase profiler service)
The assay is described as follows: kinase profiler, SRC. Conditions: 10 μM compound, 100 μM ATP, mean of % control. The class given is biochemical. As for the experimental part: as §1

The target in another assay is T12, BRK (Homo sapiens, UniProt Q13882).
T12 construct: purchased Upstate Biotechnologies (kinase profiler service)
In words: kinase profiler, BRK. The class given is biochemical. Conditions: 10 μM compound, 100 μM ATP, mean of % control. As for the experimental part:
as §1

In a further assay the target is T13, ROCK-II (Homo sapiens, UniProt O75116).
T13 construct: purchased Upstate Biotechnologies (kinase profiler service)
T13 sequence (O75116 whole entry): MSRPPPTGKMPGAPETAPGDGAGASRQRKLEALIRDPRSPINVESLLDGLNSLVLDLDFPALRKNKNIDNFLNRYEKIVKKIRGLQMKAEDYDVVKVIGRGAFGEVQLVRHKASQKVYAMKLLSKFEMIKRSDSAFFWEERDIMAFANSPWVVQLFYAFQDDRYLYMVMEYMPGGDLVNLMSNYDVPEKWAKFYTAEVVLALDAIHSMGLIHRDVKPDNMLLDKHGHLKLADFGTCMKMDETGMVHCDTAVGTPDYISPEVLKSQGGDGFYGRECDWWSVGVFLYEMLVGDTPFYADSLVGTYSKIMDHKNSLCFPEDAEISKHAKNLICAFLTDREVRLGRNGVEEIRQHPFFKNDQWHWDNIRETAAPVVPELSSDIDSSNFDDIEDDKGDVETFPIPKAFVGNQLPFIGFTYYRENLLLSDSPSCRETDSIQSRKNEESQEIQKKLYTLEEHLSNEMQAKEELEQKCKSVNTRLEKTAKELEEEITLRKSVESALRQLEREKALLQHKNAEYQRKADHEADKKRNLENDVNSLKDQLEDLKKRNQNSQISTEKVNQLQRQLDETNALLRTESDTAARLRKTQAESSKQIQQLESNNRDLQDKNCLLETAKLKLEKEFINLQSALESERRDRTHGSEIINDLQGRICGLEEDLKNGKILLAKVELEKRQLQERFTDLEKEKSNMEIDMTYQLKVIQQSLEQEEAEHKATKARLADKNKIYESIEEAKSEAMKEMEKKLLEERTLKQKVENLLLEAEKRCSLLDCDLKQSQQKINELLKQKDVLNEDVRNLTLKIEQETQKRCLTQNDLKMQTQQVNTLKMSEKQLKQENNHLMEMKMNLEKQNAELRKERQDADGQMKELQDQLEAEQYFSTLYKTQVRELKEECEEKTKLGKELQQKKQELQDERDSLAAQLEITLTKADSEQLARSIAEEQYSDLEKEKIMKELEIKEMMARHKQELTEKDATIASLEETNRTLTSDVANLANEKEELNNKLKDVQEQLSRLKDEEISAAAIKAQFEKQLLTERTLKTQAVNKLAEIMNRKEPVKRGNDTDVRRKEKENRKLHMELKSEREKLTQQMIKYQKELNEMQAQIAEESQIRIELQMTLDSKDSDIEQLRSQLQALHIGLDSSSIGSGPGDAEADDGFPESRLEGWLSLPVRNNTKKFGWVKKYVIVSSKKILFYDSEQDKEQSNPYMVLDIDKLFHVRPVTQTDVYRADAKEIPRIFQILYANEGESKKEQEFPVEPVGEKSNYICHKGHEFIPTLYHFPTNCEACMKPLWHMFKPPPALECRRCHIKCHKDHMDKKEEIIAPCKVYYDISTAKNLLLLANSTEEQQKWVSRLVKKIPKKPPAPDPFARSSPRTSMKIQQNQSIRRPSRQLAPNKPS
The assay is described as follows: kinase profiler, ROCK-II. The class given is biochemical. Conditions: 10 μM compound, 100 μM ATP, mean of % control. The protocol:
as §1

A further assay concerns the target T14, CDK1/cyclinB (Homo sapiens, UniProt P06493).
T14 construct: purchased Upstate Biotechnologies (kinase profiler service)
The assay is described as follows: kinase profiler, CDK1/cyclinB. Conditions: 10 μM compound, 100 μM ATP, mean of % control. The class given is biochemical. As for the experimental part: as §1

The next assay addresses T15, Rsk1 (Homo sapiens, UniProt Q15418).
T15 construct: purchased Upstate Biotechnologies (kinase profiler service)
The assay is described as follows: kinase profiler, Rsk1. The class given is biochemical. As to conditions: 10 μM compound, 100 μM ATP, mean of % control. The protocol:
as §1

Another assay deals with T16, Tie2 (Homo sapiens, UniProt Q02763).
T16 construct: purchased Upstate Biotechnologies (kinase profiler service)
In words: kinase profiler, Tie2. Conditions: 10 μM compound, 100 μM ATP, mean of % control. The class given is biochemical. The protocol:
as §1

The target of a further assay is T17, EGFR (Homo sapiens, UniProt P00533).
T17 construct: purchased Upstate Biotechnologies (kinase profiler service)
In words: kinase profiler, EGFR. The class given is biochemical. Conditions: 10 μM compound, 100 μM ATP, mean of % control. The protocol: as §1

Each structure is given as a SMILES string.

T14 sequence (P06493 whole entry): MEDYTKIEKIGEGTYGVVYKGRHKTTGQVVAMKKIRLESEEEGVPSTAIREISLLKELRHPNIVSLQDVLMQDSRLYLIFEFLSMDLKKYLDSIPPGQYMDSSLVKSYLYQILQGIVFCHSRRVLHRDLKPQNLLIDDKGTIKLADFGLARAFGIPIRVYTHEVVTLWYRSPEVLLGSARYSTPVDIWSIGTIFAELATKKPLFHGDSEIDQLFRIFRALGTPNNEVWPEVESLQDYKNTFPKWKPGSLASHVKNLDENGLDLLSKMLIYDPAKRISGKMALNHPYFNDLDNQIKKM
T14 sequence (P14635 whole entry partner): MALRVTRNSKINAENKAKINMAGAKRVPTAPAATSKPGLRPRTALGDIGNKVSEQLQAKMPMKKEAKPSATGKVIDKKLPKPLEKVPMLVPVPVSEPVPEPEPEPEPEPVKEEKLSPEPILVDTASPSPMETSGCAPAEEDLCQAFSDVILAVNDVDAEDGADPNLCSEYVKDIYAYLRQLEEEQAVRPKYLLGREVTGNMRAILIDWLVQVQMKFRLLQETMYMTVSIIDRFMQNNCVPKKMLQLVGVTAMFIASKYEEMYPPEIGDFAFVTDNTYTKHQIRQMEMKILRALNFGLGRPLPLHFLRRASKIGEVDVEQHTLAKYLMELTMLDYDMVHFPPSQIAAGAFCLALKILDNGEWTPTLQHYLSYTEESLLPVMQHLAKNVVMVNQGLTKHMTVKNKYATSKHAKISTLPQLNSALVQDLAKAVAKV
T10 sequence (Q15759 whole entry): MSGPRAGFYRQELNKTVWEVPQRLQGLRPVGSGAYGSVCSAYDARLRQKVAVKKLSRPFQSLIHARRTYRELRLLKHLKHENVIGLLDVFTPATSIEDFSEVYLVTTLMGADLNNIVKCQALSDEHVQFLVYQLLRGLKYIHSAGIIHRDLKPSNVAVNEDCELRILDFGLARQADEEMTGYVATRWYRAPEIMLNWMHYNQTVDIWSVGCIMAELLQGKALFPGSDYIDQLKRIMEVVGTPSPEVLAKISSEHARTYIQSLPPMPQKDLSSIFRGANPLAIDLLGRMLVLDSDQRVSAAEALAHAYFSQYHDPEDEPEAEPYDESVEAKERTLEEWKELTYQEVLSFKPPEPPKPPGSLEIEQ

Usually GI50 stands for the concentration that inhibits growth by half. A higher GI50 goes with lower sensitivity of the cells. For the compound `Brc1ccc2[nH]cc(-c3nc4c5ccccc5c5ccccc5c4[nH]3)c2c1` [Compound 45], the activity at 10 µM was found to be 98% at CaMKIV; 81% on Lyn; 117% at PDGFRα; 99% at ASK1; 86% on MKK6; 60% at ALK. The activity at 10 µM on Abl was found to be 107%; at GSK3α, 96%; at MKK4, 96%; on SAPK2b, 80%; on SRC, 102%; at BRK, 112%. The activity at 10 µM stood at 86% on ROCK-II; 156% on CDK1/cyclinB; 183% on Rsk1; 109% at Tie2; 105% at EGFR. The GI50 in the assay with renal cancer cell lines was determined as 1300 nM; with leukemia cell lines (Homo sapiens, leukemia cell lines (FIG. 10B)) it was 3.4 µM. Further, in the assay on leukemia cell lines (leukemia cell lines, 100 μM the highest concentration used (FIG. 10C)), the “TGI (total growth inhibition)” value was more than 100 µM. In addition, the formation of vacuoles entry in assay [1] is “formation of large vacuoles within the cytoplasm”. The “% activity” value in the assay on AMPK is given as 100%.

Values taken from patent US10080739B2, “Aryl imidazoles and their use as anti-cancer agents” (Aptose Biosciences Inc., priority 2003, dated 2018).
